Results from patent publication US20130296425A1, “PROPHYLACTIC OR THERAPEUTIC AGENT FOR A PERIPHERAL NERVE DISORDER INDUCED BY ANTI-CANCER AGENTS” (NAGOYA INDUSTRIAL SCIENCE RESEARCH INSTITUTE, priority 2011, published 2013).

Key:
[1] = system: oxaliplatin-induced peripheral nerve disorder rats; assay: Repeated intraperitoneal administration, hyperalgesia by oxaliplatin (von Frey test); type: in vivo, rat
Procedure: With regard to male SD rats of six weeks age used as the experimental animals, their 50% reaction threshold values to mechanical stimulus and body weights were measured and then the following seven groups each comprising 8 rats was organized. • Normal control group • Onset control group • Prophylactic administration group with 0.25 mg/kg/day of a test drug • Prophylactic administration group with 0.50 mg/kg/day of a test drug • Therapeutic administration group with 0.25 mg/kg/day of a test drug • Therapeutic administration group with 0.50 mg/kg/day of a test drug • Therapeutic administration group with 10 mg/kg/day of pregabalin (positive control)
To the rats of each of the above groups except the normal control group was intraperitoneally administered an oxaliplatin solution dissolved in glucose injection to an extent of 4 mg/mL in a dose of 4 mg/kg twice weekly for four weeks being eight times in total whereupon the oxaliplatin-induced peripheral nerve disorder rats were prepared. To the normal control group, glucose injection was administered similarly.
To prophylactic administration groups of a test drug, a test drug (the compound 4) in a dose of 0.25 mg/kg/day or 0.50 mg/kg/day was repeatedly administered intraperitoneally since immediately after initiation of administration of oxaliplatin until 27 days thereafter. Meanwhile, to a therapeutic administration group of a test drug and to a therapeutic administration group of pregabalin, a test drug (the compound 4) in a dose of 0.25 mg/kg/day or 0.50 mg/kg/day was repeatedly administered intraperitoneally during the period of from 14 days to 27 days after initiation of the administration of oxaliplatin and, pregabalin was administered orally in repeated dose of 10 mg/kg/day during the same period.
A von Frey test was conducted in the same manner as in the above 1.[1](4) using the seven groups of rats mentioned in the above (1). 50% reaction threshold values in each group were measured before initiating the administration of oxaliplatin and after 7, 14, 21, 28, 33 and 40 days from the initiation of the administration. Mean value ± standard error for each group was calculated and the test for significant difference was conducted in the same manner as in the above 1.[1](4).

[2] = system: paclitaxel-induced peripheral nerve disorder rats; assay: Single intraperitoneal administration, hyperalgesia induced by paclitaxel (von Frey test); type: in vivo; details: Rattus norvegicus, ip, single i.p. dose 0.3 mg/kg, higher of the values after 1 hour and 5 hours, read-out: Recovery rate of 50% reaction threshold value (%)
Procedure: Male SD rats in six weeks age (one group comprised six rats) were used as experimental animals and the paclitaxel-induced peripheral nerve disorder rats were prepared in the same manner as in the above 1.[1](2). The test drug was administered intraperitoneally in a single dose so as to make it 0.3 mg/kg in any of the cases during the period of 18 to 25 days or 20 to 27 days after initiation of administration of paclitaxel.
A von Frey test was conducted in the same manner as in the above 1.[1](4) using the rats mentioned in the above (1) and each 50% reaction threshold value was measured. With regard to the higher 50% reaction threshold value between the 50% reaction threshold values after 1 hour and 5 hours from administration of a test drug, a recovery rate (%) of the 50% reaction threshold value was calculated.
Recovery rate (%) of 50% reaction threshold value={[(50% reaction threshold value after 1 hour or 5 hours from administration of test drug)−(50% reaction threshold value before administration of test drug)]÷[(Normal threshold value)−(50% reaction threshold value before administration of test drug)]}×100

## CCCCCCC/C=C/C(=O)OCC [Compound 4, Trans-2-decenoic acid ethyl ester]
[1]; oxaliplatin model, repeated i.p. 0.25 or 0.50 mg/kg/day
  effect of suppressing the hyperalgesia after completion of the repeated administration: still continued
[1]; prophylactic i.p. 0.25 mg/kg/day until 27 days, from 21 days to 28 days after oxaliplatin
  50% reaction threshold values to the mechanical stimulus vs onset control group: significantly high
[1]; prophylactic i.p. 0.5 mg/kg/day until 27 days, from 21 days to 33 days after oxaliplatin
  50% reaction threshold values to the mechanical stimulus vs onset control group: significantly high
[1]; therapeutic i.p. 0.25 mg/kg/day (days 14-27), after 28 days from oxaliplatin
  50% reaction threshold values to the mechanical stimulus vs onset control group: significantly high
[1]; therapeutic i.p. 0.5 mg/kg/day (days 14-27), from 21 days to 33 days after oxaliplatin
  50% reaction threshold values to the mechanical stimulus vs onset control group: significantly high
[2]
  inhibition in vivo at 0.3 mg/kg: 48.5%
